The test system of data set [1] is serum phosphodiesterases. Briefly: Hydrolysis by serum phosphodiesterases.
The subject of data set [2] is SVPD. The experiment in a line: Hydrolysis by SVPD (snake venom phosphodiesterase). Type of data set: in vitro ADME. As to the method:
It is known that the enzyme SVPD preferentially cleaves Rp-3',5'- or 2',5'-phosphorothioate linkages from the 2'/3'-terminus. Nelson et al, J. Org. Chem. 49:2314-2317 (1984); Eppstein et al, J. Biol. Chem. 261:5999-6003 (1986); Lee et al, Biochemistry 24:551-555 (1985). SVPD hydrolysis of the chemically synthesized dimer core ARp A yielded adenosine and AMPS in a molar ratio of 1:1, respectively; the half-life was 3 hours (Table 3).
(§1) The metabolic stability of the 2,5'-phosphorothioate dimer and trimer cores is markedly greater than authentic 2-5A. The rate of hydrolysis of the trimer cores by the 3'-exonuclease SVPD is, in order of decreasing stability: ASp ARp A>ARp ARp A>>>A3. […] The 3'->'5'direction of stepwise cleavage by SVPD is blocked by an Sp configuration, preventing cleavage of the upstream adjacent phosphorothioate linkage. […] With both SVPD and 2'-PDE, the dimer cores (either ARp A or ASp A) accumulate following hydrolysis of the ARp ARp A, ASp ARp A and ARp ASp A trimer cores. Hydrolysis of the 2-5A molecule by SVPD and 2'-PDE proceeds from the 2'/3'-terminus. Therefore, introduction of the phosphorothioate group into the trimer core results in the accumulation of the ARp A or ASp A dimer cores from the 5'-terminus and the accumulation of AMPS from the 2'/3'-terminus (Table 3). With authentic A3, there is no detectable accumulation of A2 following hydrolysis by SVPD or 2'-PDE.

The test system of data set [3] is 2'-phosphodiesterase (2'-PDE), L cell extract. Briefly: Hydrolysis by 2'-phosphodiesterase in L cell extract. Type of data set: in vitro ADME.
From the text: The four 2,5-phosphorothioate adenylate trimer cores were further characterized by hydrolysis with the enzyme 2'-phosphodiesterase ("2'-PDE"), an exoribonuclease found in L cell extract The enzyme cleaves from the 2'/3'-terminus.
as §1

Data set [4] relates to HIV reverse transcriptase. Briefly: HIV reverse transcriptase activity. Type of data set: biochemical, HIV (HTLV-IIIB). Particulars: 200 uM; for Reverse Transcriptase Activity: control 187×10^3 cpm (reactions 1-4), 273×10^3 cpm (reactions 5-13). The procedure: HIV reverse transcriptase (RNA-dependent DNA nucleotidyl-transferase) activity was assayed by a modification of the procedure of Poiesz et al. (Poiesz, B. J., Ruscetti , F. W., Gazdar, A. F., Bunn, P. S., Minna, J. D., and Gallo, R. C., Proc. Natl. Acad. Sci. U.S.A. 77: 7415-7419 (1980)).
Cultured H-9 cells are grown at 10^6 cells/ml in RPMI-1640 medium and 20% heat-inactivated fetal calf serum. Cell suspensions are centrifuged (1000×g, 10 min.) and the supernatant is removed. Virus particles are precipitated from this cell-free supernatant to which 0.3 ml of 4M NaCl and 3.6 ml of 30% (weight/volume) polyethylene glycol are added. The suspension is placed on ice for 2 hr following centrifugation at 15,000×g for 30 min at 0° C. The precipitate is resuspended in 200 microliters of 50% glycerol (vol./vol.)/25 mM Tris-HCl (pH 7.5)/5 mM dithiothreitol/50 mM KCl/0.025% Triton X-100. Virus particles are lysed by the addition of 100 microliters of 0.9% Triton X-100/1.5M KCl. Reverse transcriptase assays are performed at 37° C. for 1 hr with 10 microliters of the lysed virus solution in a final reaction volume of 100 microliters containing: 40 mM Tris-HCl (pH 7.8), 4 mM dithiothreitol, 45 mM KCl and 2.5 micrograms of template primer [poly(A)-dT15, 0.5 micrograms/microliter] (with a signal Mg^++ concentration of 10 mM). At this time, 10 microliters of the 2',5'-phosphorothioate oligoadenylate is added to a final concentration of 200 micromolar. Reaction mixtures also contain 4 micromoles of [^3 H]dTTP. Reactions are stopped by the addition of cold 5% trichloroacetic acid and filtered through nitrocellulose discs. The discs are dried and the radioactivity bound to the discs is determined. Reverse transcriptase activity is expressed as the percent relative to a control.
The compounds were assayed in the above manner in two sets, each set having a separate set of controls. The compounds of reactions 1-4 were assayed against control #1, which was 187×10^3 cpm. The compounds used in reactions 5-13 were assayed against control #2, which was 273×10^3 cpm.

Data set [5] concerns tobacco mosaic virus (TMV). The experiment in a line: TMV replication in intact Nicotiana glutinosa plants (local lesions). The conditions noted are these: 2 × 10^-5 M in infecting solution; 48 hr after infection; half-leaves of N. glutinosa. The class given is in vivo. The procedure: Carborundum (400 mesh) was sprinkled lightly onto leaves. Solutions containing 0.2 micrograms per ml of TMV and 2×10^-5 M 2',5'-phosphorothioate oligoadenylate in phosphate buffer were applied onto half-leaves of N. glutinosa with either a gloved finger or with a pipettor. The remaining half-leaves were controls (inoculated with the buffer solution containing TMV, but no active compound). The infection was allowed to proceed 48 h under continuous illumination of about 1500 Lx at which time local virus lesions appeared. Inhibition of TMV replication was calculated as the percent of local lesions produced in 2',5'-phosphorothioate oligoadenylate-treated half-leaves compared to control half-leaves.
^4 Inhibition of TMV replication was detected 48 hr after infection
and was calculated as the percent of local lesions produced in treated
halfleaves of N. glutinosa compared to control halfleaves.

Data set [6] concerns RNase L. The experiment in a line: rRNA cleavage assay using L929 cell extracts (28S and 18S rRNA). The class given is biochemical, mouse. Particulars: for concentration at which RNase L was activated to cleave 28S and 18S rRNA: L929 cell extracts, '>' = no activation at that concentration. The procedure: Activation of RNase L by 2',5'-phosphorothioate adenylate trimer cores and their 5'-monophosphates was also measured in an rRNA cleavage assay using L929 cell extracts.
The corresponding 5'-monophosphates pARp ARp A, pASp ARp A (at 10^-8 M) and pARp ASp A (at 10^-7 M) activated RNase L to cleave 28S and 18S rRNA.

The subject of data set [7] is RNase L. Briefly: Activation or inhibition of RNase L, general statements without assay named. The class given is biochemical.
Data set [8] relates to RNase L. Briefly: Core-cellulose assay: activation of partially-purified RNase L to hydrolyze poly(U)-3'-[32P]pCp. Type of data set: biochemical, mouse. The procedure:
FIG. 1B represents the results of a core-cellulose assay indicating the ability of the 2',5'-phosphorothioate adenylate trimer cores and 5'-monophosphates to activate partially-purified RNase L from L929 cell extracts to hydrolyze the substrate polY(U)-3'-[^32 P]pCp. Activation of RNase L was determined by conversion of poly (U )-3'-[^32 P]pCp to acid-soluble fragments. 100% represents 30,000 cpm of labelled poly(U)-3'-[^32 P]pCp bound to glass fiber filters. The curves are labelled in the same manner as FIG. 1A.
The 2',5'-phosphorothioate cores, with one exception, have the correct stereoconfiguration to activate RNase L. The activation of partially-purified RNase L by the 2',5'-phosphorothioates was measured according to the core-cellulose assay of Silverman, Analyt. Biochem. 144:450-460 (1985) which relies on hydrolysis of the substrate poly(U)-3-[^32 P]pCp. […] (FIG. 1B) The order of activation of the trimer cores and the corresponding 5'-monophosphates is: RpRp>SpRp>RpSp (FIG. 1B).

The text below walks through data of patent publication US5556840A, “2',5'-phosphorothioate oligoadenylates as anitiviral agents” (Temple University - Of The Commonwealth System of Higher …, priority 1994, dated 1996).

Entries after “also recorded” stand apart in the source; their conditions may differ. Where two headings read alike, the source gives them in different places.

Take `Nc1ncnc2c1ncn2[C@@H]1O[C@H](CO[P@@](O)(=S)O[C@@H]2[C@H](O)[C@@H](CO)O[C@H]2n2cnc3c(N)ncnc32)[C@@H](O)[C@H]1O` [Compound 6A, P-Thioadenylyl-(2'-5')-adenosine]: the “hydrolysis by serum phosphodiesterases (result in words)” value in data set [1] is listed as “not cleaved”. In addition, the “half life, hydrolysis by SVPD” value in data set [2] amounted to 3 h. The “hydrolysis by L cell extract / 2'-PDE (result in words)” value (from here on “hydrolysis by L cell extract / 2'-PDE”) is on record as “not cleaved” in data set [3] and “not substrates for 2'-PDE” in data set [3] (listed as ARp A).
As for `Nc1ncnc2c1ncn2[C@@H]1O[C@H](CO[P@](O)(=S)O[C@@H]2[C@H](O)[C@@H](CO)O[C@H]2n2cnc3c(N)ncnc32)[C@@H](O)[C@H]1O` [Compound 6B, P-Thioadenylyl-(2'-5')-adenosine], in data set [1], the “hydrolysis by serum phosphodiesterases (result in words)” value was “not cleaved”. For the same compound, the “hydrolysis by SVPD (result in words)” value in data set [2] is listed as “not cleaved”; in data set [2] (listed as ASp A), “not a substrate for SVPD”. The results for the “hydrolysis by L cell extract / 2'-PDE” value in data set [3] and in data set [3] (listed as ASp A) were “not cleaved” and “not substrates for 2'-PDE”, respectively.
With “(Sp)-P-thioadenylyl-(2'-5')-(Sp)-P-thioadenylyl-(2'-5')-(Sp)-P-thioadenylyl-(2'-5')-adenosine [ASp ASp ASp A]”, in data set [4], the “Percent Inhibition of HIV reverse transcriptase” value (shortened to “Percent Inhibition”) turned out to be 45% and the “Reverse Transcriptase Activity” value is 149 10^3 cpm. The “Percent TMV Inhibition” value in data set [5] was 70%.
On to “(Sp)-P-Thioadenylyl-(2'-5')-(Rp)-P-thioadenylyl-(2'-5')-adenosine [Compound 9B]”, for which, in data set [6], the “concentration at which RNase L was activated to cleave 28S and 18S rRNA” value (from here on “concentration … to cleave 28S and 18S rRNA”) is 10^-5 M. In data set [4], the “Percent Inhibition” value came to 6% and the “Reverse Transcriptase Activity” value was 258 10^3 cpm. In addition, in data set [5], the “Percent TMV Inhibition” value amounted to 33%. Besides, the “hydrolysis by serum phosphodiesterases (result in words)” value in data set [1] is listed as “not cleaved”. Further, in data set [2], the “half life, hydrolysis by SVPD” value is 8 h; the “hydrolysis by SVPD (result in words)” value is “yielded ASp A and AMPS”. The “half life, hydrolysis by L cell extract” value in data set [3] amounted to 15 h.
In the case of “5'-O-Phosphoryl-(Sp)-thioadenylyl-(2'-5')-(Rp)-thioadenylyl-(2'-5')-adenosine [pASp ARp A]”, the “concentration … to cleave 28S and 18S rRNA” value in data set [6] was 10^-8 M. In data set [4], the “Percent Inhibition” value is on record as 16% and the “Reverse Transcriptase Activity” value is 230 10^3 cpm. For the same compound, the “Percent TMV Inhibition” value in data set [5] is on record as 23%.
As to “5'-O-Phosphoryl-(Rp)-thioadenylyl-(2'-5')-(Sp)-thioadenylyl-(2'-5')-adenosine [pARp ASp A]”, the “effect on RNase L activation (result in words)” value in data set [7] was “relatively metabolically stable and highly efficient activator for RNase L”. The “concentration … to cleave 28S and 18S rRNA” value in data set [6] is 10^-7 M. Besides, in data set [4], the “Percent Inhibition” value was 25% and the “Reverse Transcriptase Activity” value was 206 10^3 cpm. In addition, the “Percent TMV Inhibition” value in data set [5] is 15%.
“(Rp)-P-Thioadenylyl-(2'-5')-(Rp)-P-thioadenylyl-(2'-5')-adenosine [Compound 9A]”: in data set [6], the “concentration … to cleave 28S and 18S rRNA” value was 10^-5 M. For the same compound, in data set [4], the “Percent Inhibition” value was 18% and the “Reverse Transcriptase Activity” value is given as 224 10^3 cpm. Further, in data set [5], the “Percent TMV Inhibition” value was found to be 57%. In data set [1], the “half life, hydrolysis by serum phosphodiesterases” value amounted to 8 h. Further, in data set [2], the “half life, hydrolysis by SVPD” value is listed as 1 h and the “hydrolysis by SVPD (result in words)” value was “hydrolysis by SVPD to yield AMPS plus ARp A”. Moreover, in data set [3], the “half life, hydrolysis by L cell extract” value turned out to be 18 h.
With “(Rp)-P-thioadenylyl-(2'-5')-(Sp)-P-thioadenylyl-(2'-5')-(Sp)-P-thioadenylyl-(2'-5')-adenosine [ARp ASp ASp A]”, in data set [4], the “Percent Inhibition” value is 46% and the “Reverse Transcriptase Activity” value is on record as 147 10^3 cpm. Besides, the “Percent TMV Inhibition” value in data set [5] is 80%.
“(Sp)-P-Thioadenylyl-(2'-5')-(Sp)-P-thioadenylyl-(2'-5')-adenosine [Compound 10B]”: the “effect on RNase L activation (result in words)” value in data set [7] was “selectively inactivates RNase L”. Moreover, in data set [6], the “inhibition of RNase L activation, rRNA cleavage assay (result in words)” value is “inhibit RNase L activation”; the “concentration … to cleave 28S and 18S rRNA” value is reported as > 10^-4 M. Moreover, in data set [4], the “Percent Inhibition” value is 20% and the “Reverse Transcriptase Activity” value was 219 10^3 cpm. The “Percent TMV Inhibition” value in data set [5] is given as 80%. Moreover, the “hydrolysis by serum phosphodiesterases (result in words)” value in data set [1] was “not cleaved”. The “inhibition of RNase L activation, core-cellulose assay (result in words)” value in data set [8] is “inhibit RNase L activation”. Also, the “concentration up to which RNase L was not activated, core-cellulose assay” value in data set [8] (poly(U)-3'-[32P]pCp substrate, not activated at the concentration) is > 10^-3 M. Also, the “hydrolysis by SVPD (result in words)” value in data set [2] is listed as “not substrates for SVPD; also recorded: not cleaved”. The “hydrolysis by SVPD (result in words)” value in data set [2] (listed as ASp ASp A) is recorded as “not substrates of SVPD”. Besides, the “hydrolysis by L cell extract / 2'-PDE” value in data set [3] is listed as “not cleaved”. In addition, the “hydrolysis by L cell extract / 2'-PDE” value in data set [3] (listed as ASp ASp A) is listed as “not cleaved by L-cell extract”.
